According to US9150489B2, “1-(2-fluorobiphenyl-4-yl)-alkyl carboxylic acid derivatives for the therapy of transthyretin amyloidosis” (CHIESI FARMACEUTICI S.p.A., priority 2010, dated 2015):

What was measured:
[1] = biological target: T1, human wild-type TTR (Homo sapiens, UniProt P02766); assay: In vitro fibrillogenesis by wild-type TTR at acidic pH (turbidity at 400 nm); assay type: biochemical; settings: 3.6 μM TTR, 10.8 μM inhibitor, pH 4.4, 37° C., average of two measurements; for inhibition at 10.8 µM: read-out: inhibitory effect on wild-type TTR fibrillogenesis
T1 construct: made in house; host or cells: E. coli
From the text: (§1) The aim of this study was to evaluate the inhibitory effect of the same representative compounds of the inventions tested in Example 1 in vitro fibrillogenesis by human wild-type TTR and two major amyloidogenic variants (V30M and V 122I) at moderately acidic pH, in comparison to reference compounds. To highlight the inhibitory effect of CHF 5074 and CHF4795 versus diflunisal and tafamidis on in vitro fibrillogenesis by wild-type, V30M and V122I TTR at moderately acid pH, we followed the kinetics of fibril formation by these proteins, by monitoring the increase in turbidity at 400 nm as reported in Johnson et al., 2008, J. Med. Chem., 51:260 (which is incorporated herein by reference), upon incubation with TTR. The final concentration of TTR was of 3.6 μM, which is close to its physiological plasma concentration, with fibrillogenesis inhibitors at a final concentration of 10.8 μM. According to the procedure adopted for other inhibitors of fibrillogenesis (Johnson et al., 2008, J. Med. Chem., 51:260), TTR was incubated with each inhibitor at neutral pH (10 mM Na phosphate buffer, pH 7.2, 100 mM KCl, 1 mM EDTA) for 30 minutes at ambient temperature, prior to the incubation of the protein at acidic pH (200 mM Na Acetate buffer, pH 4.4, 100 mM KCl, 1 mM EDTA) at 37° C. in order to promote fibrillogenesis. Inhibitory effect data represent the average of two independent measurements for each compound.

[2] = biological target: T2, V 122I TTR (Homo sapiens, UniProt P02766, V142I); assay: In vitro fibrillogenesis by V122I TTR at acidic pH (turbidity at 400 nm); assay type: biochemical; settings: 3.6 μM TTR, 10.8 μM inhibitor, pH 4.4, 37° C., average of two measurements; for inhibition at 10.8 µM: read-out: inhibitory effect on V 122I TTR fibrillogenesis
T2 construct: made in house; host or cells: E. coli
From the text: as §1

[3] = biological target: T3, wild-type human transthyretin (TTR) (Homo sapiens, UniProt P02766); assay: Competitive binding to wild-type human TTR by fluorometric techniques; settings: 20° C.; for emission peak of TTR-bound ANS in the presence of the compound / emission peak of TTR-bound tafamidis in the presence of the compound / emission peak of TTR-bound trans-resveratrol in the presence of the compound: 10 μM compound; for emission peak of TTR-bound ANS in the presence of the compound: 10 μM ANS, excitation 360 nm; for emission peak of TTR-bound ANS in the presence of the compound / emission peak of TTR-bound trans-resveratrol in the presence of the compound: 5 μM TTR; for emission peak of TTR-bound tafamidis in the presence of the compound: 10 μM tafamidis, 10 μM TTR; for emission peak of TTR-bound tafamidis in the presence of the compound / emission peak of TTR-bound trans-resveratrol in the presence of the compound: excitation 320 nm; for emission peak of TTR-bound trans-resveratrol in the presence of the compound: 10 μM trans-resveratrol; for relative binding affinity to TTR (competitive binding assays taken together): 50 mM Na phosphate buffer, pH 7.2, 150 mM NaCl
T3 construct: made in house; host or cells: E. coli

[4] = biological target: T4, V30M TTR (Homo sapiens, UniProt P02766, V50M); assay: In vitro fibrillogenesis by V30M TTR at acidic pH (turbidity at 400 nm); assay type: biochemical; settings: 3.6 μM TTR, 10.8 μM inhibitor, pH 4.4, 37° C., average of two measurements
T4 construct: made in house; host or cells: E. coli
From the text: as §1

[5] = biological target: T3, wild-type human transthyretin (TTR); settings: cited from earlier work

inhibition at 10.8 µM [1] [%] | inhibition at 10.8 µM [2] [%] | SMILES | emission peak of TTR-bound ANS in the presence of the compound ([3]; pH 7.2) | emission peak of TTR-bound tafamidis in the presence of the compound ([3]; pH 7.2) | emission peak of TTR-bound trans-resveratrol in the presence of the compound ([3]; pH 7.2) | relative binding affinity to TTR (competitive binding assays taken together) [3] | inhibitory effect on V30M TTR fibrillogenesis [4] | binding affinity for TTR (known property of the fluorescent probes) [5] | other results
 |  | CC(C)(C(=O)O)c1ccc(-c2cc(Cl)cc(Cl)c2)c(F)c1 [CHF 4795, 2-methyl-(3′,5′-dichloro-2-fluoro-biphenyl-4-yl) propionic acid] | nearly completely abolished | nearly completely shifted to that of unbound tafamidis | nearly completely abolished | higher binding affinity to TTR as compared to trans-resveratrol | inhibitory effects similar to those observed with wild-type TTR |  | inhibitory effect on wild-type TTR fibrillogenesis [1]: about 75%; inhibitory effect on V 122I TTR fibrillogenesis [2]: about 92%
 |  | Oc1ccc(/C=C/c2cc(O)cc(O)c2)cc1 [trans-resveratrol, reference compound] |  |  |  |  |  | high binding affinity, greater than that of thyroxine | fluorescence emission of TTR-bound diflunisal exposed to equimolar compound ([3]; 10 μM TTR-bound diflunisal, equimolar compound, excitation 340 nm, pH 7.2): a spectrum similar to that of TTR-bound trans-resveratrol rather than to that of TTR-bound diflunisal was obtained
~75 | ~92 | O=C(O)c1ccc2nc(-c3cc(Cl)cc(Cl)c3)oc2c1 [tafamidis, 2-(3,5-dichlorophenyl)-1,3-benzoxazole-6-carboxylic acid, reference compound] |  |  |  |  | inhibitory effects similar to those observed with wild-type TTR |  | 
~75 | ~92 | O=C(O)c1cc(-c2ccc(F)cc2F)ccc1O [diflunisal, reference compound] |  |  |  |  | inhibitory effects similar to those observed with wild-type TTR |  | 
~75 | ~92 | O=C(O)C1(c2ccc(-c3ccc(Cl)c(Cl)c3)c(F)c2)CC1 [CHF 5074, 1-(3′,4′-dichloro-2-fluorobiphenyl-4-yl)cyclopropanecarboxylic acid] | nearly completely abolished | nearly completely shifted to that of unbound tafamidis | nearly completely abolished | higher binding affinity to TTR as compared to trans-resveratrol | inhibitory effects similar to those observed with wild-type TTR |  | 
 |  | O=S(=O)(O)c1cccc2cccc(Nc3ccccc3)c12 [ANS, 8-anilino-1-naphthalene sulfonate] |  |  |  |  |  | relatively low binding affinity | 
